Test results taken from patent US5306721A (priority 1990, dated 1994).
Like-named read-outs stand apart in the source and are kept apart here.

Assays:
Influenza A/WSN [1] = assay: Plaque reduction test, influenza; assay type: cell-based; conditions: Influenza A virus, primary chicken embryo cells, read-out: Plaque reduction in % of the virus control
[2] = system: SE-specific IgM and IgG plaque forming cells (PFC); assay: Immunorestorative efficacy: plaque test in cyclophosphamide (CY) damaged animals; assay type: in vivo, mouse (CBA inbred); conditions: for IgM PFC/10^6, CY + compound / IgG PFC/10^6 spleen cells, CY + compound: CY 150 mg/kg, oral 2 mg/kg
Procedure: The detection of immunorestorative effects after injury to the immune system was carried out also by the plaque test for detecting SE-specific IgM, and IgG PFC, and by the rosette test.
The determination of the immunorestorative activity of compounds of Formula I was conducted by first damaging the immune system of the experimental animals (CBA inbred mice) by chemotherapy with cyclophosphamide, carrageenan, iloprost, or by radiation. The test was carried the plaque test for detecting SE-specific IgM and IgG PFC, and the rosette test.
The examination of the immunorestorative effects of compounds of Example 1 was carried out by damaging the immune system of the experimental animals by cyclophosphamide (CY), and subsequent testing by sheep erythrocycle SE-specific plaque forming cells PFC.
The immune system of the animals was damaged by the injection of 150 mg/kg of body weight on day -1 before the immunization for both the test and the control groups. Immunization was carried out by the intraperitoneal injection of 4×10^8 SE in 0.2 ml of phosphate buffered saline (PBS) solution.
Each of the experimental animals of the test group received by oral administration 2 mg of the compound of Example 1 per kg of body weight on the days -2, -1, 0, +1 and +2. The SE-specific IgM and IgG PFC was detected by the plaque test.

coxsackie A 9 virus = assay: Antiviral activity against coxsackie A 9 virus; assay type: cell-based
Vaccinia Lister [3] = assay: microbe, parasite or virus in culture; assay type: cell-based; conditions: Orthopoxvirus vaccinia
adenovirus type 4 = assay: Antiviral activity against adenovirus type 4; assay type: cell-based
Vaccinia Lister [4] = assay: microbe, parasite or virus in culture; assay type: cell-based, vaccinia virus
[5] = system: SE-specific IgM and IgG plaque forming cells (PFC); assay: Plaque test (HPT) for SE-specific IgM and IgG plaque forming cells, immunostimulatory action; assay type: in vivo, mouse (inbred CBA strain); conditions: 2.0 mg/kg daily over 5 days; control 100%; p<0.001
Procedure: The testing of immunostimulatory effects was also conducted on the mouse (inbred CBA strain) by detection through the plaque test for detecting SE (sheep erythrocyte) -specific immunoglobulin M (IgM) and immunoglobulin G (IgG) PFC (plaque forming cells), and by the rosette test.
2.1 Plaque Test for the Detection of SE-Specific IgM and IgG Plaque Forming Cells (PFC)
To check the immunostimulatory effects, the humoral immune response effect of compounds of Formula I was also investigated in mice of the inbred CBA strain and determined by means of the haemolysis plaque test (HPT). This technique permits the PFC, which produce IgM and IgG antibodies, to be determined quantitatively and separately. The immunization with sheep erythrocytes (SE) was carried out on day 0, the substance was administered orally in a daily dose of 1×10^-5 moles/kg of body weight; on days -1 to +3 relative to the determination of the IgM PFC, or on days +1 to +5 relative to the determination of the IgG PFC.
It becomes clear that a daily treatment extending over 5 days with the compound of Example 1, produces a highly significant increase in the SE-specific IgM and IgG PFC in the CBA mouse.

[6] = system: Vesicular Stomatitis Indiana; assay: microbe, parasite or virus in culture; assay type: cell-based, vesicular stomatitis virus
Herpes simplex type 1 = assay: microbe, parasite or virus in culture; assay type: cell-based, herpes simplex virus
[7] = system: Vesicular Stomatitis Indiana; assay: microbe, parasite or virus in culture; assay type: cell-based; conditions: in Gallus gallus, read-out: Plaque reduction in % of the virus control
Influenza A/WSN [8] = assay: Grading replication test on chicken embryo cells, influenza; assay type: cell-based; conditions: Influenza A virus
Vaccinia Lister [9] = assay: microbe, parasite or virus in culture; assay type: cell-based; conditions: Orthopoxvirus vaccinia, in Gallus gallus, read-out: Plaque reduction in % of the virus control
[10] = system: Herpes simplex type 1 Kupka; assay: Grading replication test on RH cell line, herpes simplex type 1 Kupka; assay type: cell-based, herpes simplex virus; conditions: RH cells
[11] = read-out: Inhibition of virus yield
[12] = read-out: Lowering the virus yield
[13] = Orthopoxvirus vaccinia, in Gallus gallus, read-out: Inhibition of virus yield
[14] = Orthopoxvirus vaccinia, in Gallus gallus, read-out: Lowering the virus yield
[15] = Vesicular stomatitis virus, in Gallus gallus, read-out: Lowering the virus yield

O=c1[nH]c2ccccc2c(=O)n1CCS [Example 1, 3-(2-mercapto-ethyl)-quinazoline-2,4(1H,3H)-dione] was tested, and the inhibition at 31.25 µM (Influenza A/WSN [1]; 31.25 μmoles/l) was 85%, the inhibition at 62.5 µM (Influenza A/WSN [1]; 62.5 μmoles/l) was 92% and the inhibition at 125 µM (Influenza A/WSN [1]; 125 μmoles/l) was 98%. For the same molecule, the inhibition at 250 µM (Influenza A/WSN [1]; 250 μmoles/l) was 100%, the “number of IgG PFC in CY-suppressed animals” value ([2]; 6th and 7th days, p<0.05 and p<0.01) was “significantly increases the number of IgG PFC” and the “recovery of the immunological reactivity (IgM PFC)” value ([2]; CY-damaged animals, significant on the 5th day, p<0.05) was “measurable recovery of the immunological reactivity”. For the same molecule, the “IgM PFC/10^6, CY + compound” value ([2]; day of testing +3, CY only control 37.5 ± 27.1) was 31.7 ± 26.6 PFC/10^6, the “IgM PFC/10^6, CY + compound” value ([2]; day of testing +4, CY only control 49.7 ± 32.9) was 59.8 ± 26.6 PFC/10^6 and the “IgM PFC/10^6, CY + compound” value ([2]; day of testing +5, CY only control 56.8 ± 27.6, p<0.05) was 125.2 ± 32.7 PFC/10^6. For the same molecule, the “IgG PFC/10^6 spleen cells, CY + compound” value ([2]; day of testing +6, CY only control 26.7 ± 12.1, p<0.05) was 88.3 ± 24.8 PFC/10^6 spleen cells, the “IgM PFC/10^6, CY + compound” value ([2]; day of testing +6, CY only control 74.7 ± 73.4) was 47.8 ± 32.7 PFC/10^6 and the “IgG PFC/10^6 spleen cells, CY + compound” value ([2]; day of testing +7, CY only control 46.7 ± 16.3, p<0.01) was 128.3 ± 28.6 PFC/10^6 spleen cells. The “IgG PFC/10^6 spleen cells, CY + compound” value ([2]; day of testing +8, CY only control 63.3 ± 24.2) was 58.3 ± 43.6 PFC/10^6 spleen cells, the antiviral activity (coxsackie A 9 virus) was “did not have antiviral activity” and the inhibition at 31.25 µM (Vaccinia Lister [3]; [11]) was greater than 100%. It also gave an inhibition at 62.5 µM (Vaccinia Lister [3]; [11]) of 100%, an inhibition at 125 µM (Vaccinia Lister [3]; [11]) greater than 100% and an inhibition at 250 µM (Vaccinia Lister [3]; [11]) greater than 100%. For the same molecule, the log reduction at 31.25 µM (Vaccinia Lister [3]; [12]) was 3.5, the log reduction at 62.5 µM (Vaccinia Lister [3]; [12]) was 4 and the log reduction at 125 µM (Vaccinia Lister [3]; [12]) was greater than 4. For the same molecule, the log reduction at 250 µM (Vaccinia Lister [3]; [12]) was greater than 4, the antiviral activity (adenovirus type 4) was “did not have antiviral activity” and the inhibition at 31.25 µM (Vaccinia Lister [4]; [13]) was 99%. It also gave an inhibition at 62.5 µM (Vaccinia Lister [4]; [13]) of 99.7%, an inhibition at 125 µM (Vaccinia Lister [4]; [13]) of 100% and an inhibition at 250 µM (Vaccinia Lister [4]; [13]) greater than 100%. It also gave a log reduction at 31.25 µM (Vaccinia Lister [4]; [14]) of 1, a log reduction at 62.5 µM (Vaccinia Lister [4]; [14]) of 2.5 and a log reduction at 125 µM (Vaccinia Lister [4]; [14]) of 4. For the same molecule, the log reduction at 250 µM (Vaccinia Lister [4]; [14]) was 5.67, the therapeutic index (Vaccinia Lister [4]; ratio of maximum tolerated dose to minimum effective dose, vaccinia virus) was 8 and the “number of IgG PFC relative to control” value [5] was 497%. For the same molecule, the “number of IgM PFC relative to control” value [5] was 352%, the “Inhibition of virus yield” value ([6]; 125 μmoles/l, chicken embryo cells, n.s. = not significant) was “n.s” and the inhibition at 250 µM ([6]; Vesicular stomatitis virus, in Gallus gallus, read-out: Inhibition of virus yield) was 99.9%. The log reduction at 125 µM [6, 15] was 0.5, the log reduction at 250 µM [6, 15] was 3 and the “Inhibition of virus yield” value (Herpes simplex type 1) was “n.s”. It also gave a log reduction at 125 µM (Herpes simplex type 1; Human alphaherpesvirus 1, in Gallus gallus, read-out: Lowering the virus yield) of 0.33, an inhibition at 250 µM (Herpes simplex type 1; Human alphaherpesvirus 1, 250 μmoles/l, chicken embryo cells, read-out: Inhibition of virus yield) of 99% and a log reduction at 250 µM (Herpes simplex type 1; Human alphaherpesvirus 1, 250 μmoles/l, chicken embryo cells, read-out: Lowering the virus yield) of 1. It also gave an inhibition at 62.5 µM [7] of 0%, an inhibition at 125 µM [7] of 15% and an inhibition at 250 µM [7] of 45%. It also gave an inhibition at 31.25 µM (Influenza A/WSN [8]; 31.25 μmoles/l, read-out: Inhibition of virus yield) of 99.5%, a log reduction at 31.25 µM (Influenza A/WSN [8]; 31.25 μmoles/l, read-out: Lowering the virus yield) of 2.5 and an inhibition at 62.5 µM (Influenza A/WSN [8]; 62.5 μmoles/l, read-out: Inhibition of virus yield) greater than 100%. The log reduction at 62.5 µM (Influenza A/WSN [8]; 62.5 μmoles/l, read-out: Lowering the virus yield) was 4.25, the inhibition at 125 µM (Influenza A/WSN [8]; 125 μmoles/l, read-out: Inhibition of virus yield) was greater than 100% and the log reduction at 125 µM (Influenza A/WSN [8]; 125 μmoles/l, read-out: Lowering the virus yield) was 4.67. For the same molecule, the inhibition at 250 µM (Influenza A/WSN [8]; 250 μmoles/l, read-out: Inhibition of virus yield) was greater than 100%, the log reduction at 250 µM (Influenza A/WSN [8]; 250 μmoles/l, read-out: Lowering the virus yield) was 6.23 and the inhibition at 31.25 µM (Vaccinia Lister [9]) was 87%. It also gave an inhibition at 62.5 µM (Vaccinia Lister [9]) of 92%, an inhibition at 125 µM (Vaccinia Lister [9]) of 96% and an inhibition at 250 µM (Vaccinia Lister [9]) of 100%. The “Inhibition of virus yield” value ([10]; 62.5 μmoles/l, n.s. = not significant) was “n.s”, the log reduction at 62.5 µM ([10]; Human alphaherpesvirus 1, 62.5 μmoles/l, read-out: Lowering the virus yield) was 0.75 and the inhibition at 125 µM ([10]; Human alphaherpesvirus 1, 125 μmoles/l, read-out: Inhibition of virus yield) was greater than 100%. For the same molecule, the log reduction at 125 µM ([10]; Human alphaherpesvirus 1, 125 μmoles/l, read-out: Lowering the virus yield) was 5.5, the inhibition at 250 µM ([10]; Human alphaherpesvirus 1, 250 μmoles/l, read-out: Inhibition of virus yield) was greater than 100% and the log reduction at 250 µM ([10]; Human alphaherpesvirus 1, 250 μmoles/l, read-out: Lowering the virus yield) was 6.
